From ChEMBL document CHEMBL5390204, “Persephacin Is a Broad-Spectrum Antifungal Aureobasidin Metabolite That Overcomes Intrinsic Resistance in Aspergillus fumigatus” (J Nat Prod, 2023)
Converted amounts (≈) assume the structure as drawn.

Columns and labels:
Assay type in all cases: functional
Candida albicans [1] = assay: Antifungal activity against Candida albicans 21 assessed as inhibition in fungal growth incubated for 48 hrs by microplate reader analysis
Cryptococcus neoformans [2] = assay: Antifungal activity against Cryptococcus neoformans H99 assessed as reduction in fungal growth incubated for 48 hrs by microplate reader analysis
Candida albicans [3] = assay: Antifungal activity against Candida albicans SC5314 assessed as reduction in fungal viability incubated for 48 hrs by microplate reader analysis
Aspergillus fumigatus [4] = assay: Antifungal activity against Aspergillus fumigatus NRRL6113 assessed as reduction in fungal growth incubated for 48 hrs by microplate reader analysis
Paecilomyces lilacinus = assay: Antifungal activity against Paecilomyces lilacinus 165E10 assessed as reduction in fungal growth incubated for 48 hrs by microplate reader analysis; conditions: Purpureocillium lilacinum
Candida albicans [5] = assay: Antifungal activity against Candida albicans ATCC 10231 assessed as reduction in fungal growth incubated for 48 hrs by microplate reader analysis
Candida parapsilosis [6] = assay: Antifungal activity against Candida parapsilosis 9 assessed as inhibition in fungal growth incubated for 48 hrs by microplate reader analysis; conditions: Lodderomyces parapsilosis
Nakaseomyces glabratus [7] = assay: Antifungal activity against Candida glabrata 11 assessed as inhibition in fungal growth incubated for 48 hrs by microplate reader analysis
Pichia kudriavzevii [8] = assay: Antifungal activity against Candida krusei ATCC 6258 (Y-7179) assessed as reduction in fungal viability incubated for 48 hrs by microplate reader analysis
Nakaseomyces glabratus [9] = assay: Antifungal activity against Candida glabrata 20 assessed as inhibition in fungal growth incubated for 48 hrs by microplate reader analysis
Candida albicans [10] = assay: Antifungal activity against Candida albicans SC5314 assessed as reduction in fungal growth incubated for 48 hrs by microplate reader analysis
Candida albicans [11] = assay: Antifungal activity against Candida albicans SC5314 assessed as inhibition in fungal growth incubated for 48 hrs in presence of 0% serum by microplate reader analysis
Cryptococcus neoformans [12] = assay: Antifungal activity against Cryptococcus neoformans H99 assessed as inhibition in fungal growth incubated for 48 hrs in presence of 10% serum by microplate reader analysis
Candida parapsilosis [13] = assay: Antifungal activity against Candida parapsilosis ATCC 22019 (Y-12969) assessed as reduction in fungal viability incubated for 48 hrs by microplate reader analysis
Candida albicans [14] = assay: Antifungal activity against Candida albicans 8 assessed as inhibition in fungal growth incubated for 48 hrs by microplate reader analysis
Candida duobushaemulonii [15] = assay: Antifungal activity against multidrug-resistant Candida duobushaemulonii 391 assessed as inhibition in fungal growth incubated for 48 hrs by microplate reader analysis; conditions: Candidozyma duobushaemuli
[Candida] auris [16] = Antifungal activity against multidrug-resistant Candida auris 381 assessed as inhibition in fungal growth incubated for 48 hrs in presence of 10% serum by microplate reader analysis; conditions: Candidozyma auris
Hamigera insecticola = assay: Antifungal activity against Hamigera insecticola NRRL35442 assessed as reduction in fungal viability incubated for 48 hrs by microplate reader analysis
Nakaseomyces glabratus [17] = assay: Antifungal activity against Candida glabrata 4 assessed as inhibition in fungal growth incubated for 48 hrs by microplate reader analysis
Aspergillus fumigatus [18] = assay: Antifungal activity against Aspergillus fumigatus ATCC MYA-3627 assessed as inhibition in fungal growth incubated for 48 hrs in presence of 0% serum by microplate reader analysis
[Candida] auris [19] = Antifungal activity against multidrug-resistant Candida auris 382 assessed as inhibition in fungal growth incubated for 48 hrs by microplate reader analysis; conditions: Candidozyma auris
Fusarium solani [20] = assay: Antifungal activity against Fusarium solani 243G2 assessed as reduction in fungal viability incubated for 48 hrs by microplate reader analysis
Kluyveromyces marxianus = assay: Antifungal activity against Candida kefyr 12 assessed as inhibition in fungal growth incubated for 48 hrs by microplate reader analysis
[Candida] haemuloni = Antifungal activity against multidrug-resistant Candida haemulonii 393 assessed as inhibition in fungal growth incubated for 48 hrs by microplate reader analysis; conditions: Candidozyma haemuli
Candida duobushaemulonii [21] = assay: Antifungal activity against multidrug-resistant Candida duobushaemulonii 394 assessed as inhibition in fungal growth incubated for 48 hrs by microplate reader analysis; conditions: Candidozyma duobushaemuli
Aspergillus niger [22] = assay: Antifungal activity against Aspergillus niger FGSC A732 assessed as reduction in fungal growth incubated for 48 hrs by microplate reader analysis
Pichia kudriavzevii [23] = assay: Antifungal activity against multidrug-resistant Candida krusei 397 assessed as inhibition in fungal growth incubated for 48 hrs by microplate reader analysis
Fusarium solani [24] = assay: Antifungal activity against Fusarium solani 243G2 assessed as reduction in fungal growth incubated for 48 hrs by microplate reader analysis
Candida duobushaemulonii [25] = assay: Antifungal activity against multidrug-resistant Candida duobushaemulonii 392 assessed as inhibition in fungal growth incubated for 48 hrs by microplate reader analysis; conditions: Candidozyma duobushaemuli
Aspergillus niger [26] = assay: Antifungal activity against Aspergillus niger FGSC A732 assessed as reduction in fungal viability incubated for 48 hrs by microplate reader analysis
[Candida] auris [27] = Antifungal activity against multidrug-resistant Candida auris 386 assessed as inhibition in fungal growth incubated for 48 hrs by microplate reader analysis; conditions: Candidozyma auris
Curvularia lunata = assay: Antifungal activity against Curvularia lunata NRRL6409 assessed as reduction in fungal growth incubated for 48 hrs by microplate reader analysis
Candida tropicalis [28] = assay: Antifungal activity against Candida tropicalis 13 assessed as inhibition in fungal growth incubated for 48 hrs by microplate reader analysis
Candida albicans [29] = assay: Antifungal activity against Candida albicans 14 assessed as inhibition in fungal growth incubated for 48 hrs by microplate reader analysis
[Candida] auris [30] = Antifungal activity against multidrug-resistant Candida auris 389 assessed as inhibition in fungal growth incubated for 48 hrs by microplate reader analysis; conditions: Candidozyma auris
Candida albicans [31] = assay: Antifungal activity against Candida albicans ATCC 10231 assessed as reduction in fungal viability incubated for 48 hrs by microplate reader analysis
Candida parapsilosis [32] = assay: Antifungal activity against Candida parapsilosis 7 assessed as inhibition in fungal growth incubated for 48 hrs by microplate reader analysis; conditions: Lodderomyces parapsilosis
Candida albicans [33] = assay: Antifungal activity against Candida albicans 10 assessed as inhibition in fungal growth incubated for 48 hrs by microplate reader analysis
Candida tropicalis [34] = assay: Antifungal activity against Candida tropicalis ATCC750 (Y-12699) assessed as reduction in fungal growth incubated for 48 hrs by microplate reader analysis
Rhizopus arrhizus = assay: Antifungal activity against Rhizopus oryzae FGSC 9543 assessed as reduction in fungal viability incubated for 48 hrs by microplate reader analysis
[Candida] auris [35] = Antifungal activity against multidrug-resistant Candida auris 388 assessed as inhibition in fungal growth incubated for 48 hrs by microplate reader analysis; conditions: Candidozyma auris
[Candida] auris [36] = Antifungal activity against multidrug-resistant Candida auris 381 assessed as inhibition in fungal growth incubated for 48 hrs in presence of 5% serum by microplate reader analysis; conditions: Candidozyma auris
[Candida] auris [37] = Antifungal activity against multidrug-resistant Candida auris 390 assessed as inhibition in fungal growth incubated for 48 hrs by microplate reader analysis; conditions: Candidozyma auris
Nakaseomyces glabratus [38] = assay: Antifungal activity against Candida glabrata 16 assessed as inhibition in fungal growth incubated for 48 hrs by microplate reader analysis

CC[C@H](C)C[C@H](C)C[C@H](C)C[C@@H]1NC(=O)[C@H](C(C)C)N(C)C(=O)[C@@H]([C@H](C)CC)OC(=O)[C@H](C(C)(C)O)N(C)C(=O)[C@H](CC(C)C)NC(=O)[C@H](C(C)C)N(C)C(=O)[C@H]([C@H](C)CC)NC(=O)[C@@H]2CCCN2C(=O)CN(C)C1=O
MIC80 (Candida albicans [1]): 1.3 µM (≈ 1.4 µg/mL)
MFC (Cryptococcus neoformans [2]): 2.5 µM (≈ 2.69 µg/mL)
MIC80 (Cryptococcus neoformans [2]): 0.6 µM (≈ 0.645 µg/mL)
MFC<=99.9 (Candida albicans [3]): 1.3 µM (≈ 1.4 µg/mL)
MFC (Aspergillus fumigatus [4]): 5 µM (≈ 5.38 µg/mL)
MIC80 (Aspergillus fumigatus [4]): 2.5 µM (≈ 2.69 µg/mL)
MFC (Paecilomyces lilacinus): > 10 µM
MIC80 (Paecilomyces lilacinus): 2.5 µM (≈ 2.69 µg/mL)
MFC (Candida albicans [5]): 1.3 µM (≈ 1.4 µg/mL)
MIC80 (Candida albicans [5]): 0.6 µM (≈ 0.645 µg/mL)
MIC80 (Candida parapsilosis [6]): 2.5 µM (≈ 2.69 µg/mL)
MIC80 (Nakaseomyces glabratus [7]): 0.6 µM (≈ 0.645 µg/mL)
MFC<=99.9 (Pichia kudriavzevii [8]): 2.5 µM (≈ 2.69 µg/mL)
MIC80 (Nakaseomyces glabratus [9]): 0.3 µM (≈ 0.323 µg/mL)
MFC (Candida albicans [10]): 1.3 µM (≈ 1.4 µg/mL)
MIC80 (Candida albicans [10]): 0.3 µM (≈ 0.323 µg/mL)
MIC80 (Candida albicans [11]): 0.6 µM
MIC80 (Cryptococcus neoformans [12]): < 0.2 µM
MFC<=99.9 (Candida parapsilosis [13]): 2.5 µM (≈ 2.69 µg/mL)
MIC80 (Candida albicans [14]): 0.6 µM (≈ 0.645 µg/mL)
MIC80 (Candida duobushaemulonii [15]): 2.5 µM (≈ 2.69 µg/mL)
MIC80 ([Candida] auris [16]): 1.3 µM
MFC<=99.9 (Hamigera insecticola): 5 µM (≈ 5.38 µg/mL)
MIC80 (Nakaseomyces glabratus [17]): 1.3 µM (≈ 1.4 µg/mL)
MIC80 (Aspergillus fumigatus [18]): 2.5 µM
MIC80 ([Candida] auris [19]): 2.5 µM (≈ 2.69 µg/mL)
MFC<=99.9 (Fusarium solani [20]): 2.5 µM (≈ 2.69 µg/mL)
MIC80 (Kluyveromyces marxianus): 1.3 µM (≈ 1.4 µg/mL)
MIC80 ([Candida] haemuloni): 0.3 µM (≈ 0.323 µg/mL)
MIC80 (Candida duobushaemulonii [21]): 2.5 µM (≈ 2.69 µg/mL)
MFC (Aspergillus niger [22]): > 10 µM
MIC80 (Aspergillus niger [22]): 1.3 µM (≈ 1.4 µg/mL)
MIC80 (Pichia kudriavzevii [23]): 2.5 µM (≈ 2.69 µg/mL)
MFC (Fusarium solani [24]): 2.5 µM (≈ 2.69 µg/mL)
MIC80 (Fusarium solani [24]): 1.3 µM (≈ 1.4 µg/mL)
MIC80 (Candida duobushaemulonii [25]): 2.5 µM (≈ 2.69 µg/mL)
MFC<=99.9 (Aspergillus niger [26]): >10 µM
MIC80 ([Candida] auris [27]): 2.5 µM (≈ 2.69 µg/mL)
MFC (Curvularia lunata): 0.6 µM (≈ 0.645 µg/mL)
MIC80 (Curvularia lunata): 0.3 µM (≈ 0.323 µg/mL)
MIC80 (Candida tropicalis [28]): 0.6 µM (≈ 0.645 µg/mL)
MIC80 (Candida albicans [29]): 0.6 µM (≈ 0.645 µg/mL)
MIC80 ([Candida] auris [30]): 2.5 µM (≈ 2.69 µg/mL)
MFC<=99.9 (Candida albicans [31]): 1.3 µM (≈ 1.4 µg/mL)
MIC80 (Candida parapsilosis [32]): 2.5 µM (≈ 2.69 µg/mL)
MIC80 (Candida albicans [33]): 2.5 µM (≈ 2.69 µg/mL)
MFC (Candida tropicalis [34]): 2.5 µM (≈ 2.69 µg/mL)
MIC80 (Candida tropicalis [34]): 1.3 µM (≈ 1.4 µg/mL)
MFC<=99.9 (Rhizopus arrhizus): >10 µM
MIC80 ([Candida] auris [35]): 2.5 µM (≈ 2.69 µg/mL)
MIC80 ([Candida] auris [36]): 1.3 µM
MIC80 ([Candida] auris [37]): 2.5 µM (≈ 2.69 µg/mL)
MIC80 (Nakaseomyces glabratus [38]): 0.3 µM (≈ 0.323 µg/mL)
